This test deals with PCA response. Nature of the test: rat Passive Cutaneous Anaphylaxis Test (PCA test). Conditions: subcutaneous, as sodium salt. It is filed as in vivo, rat (male Wistar). As for the experimental part:
Some of the 4-hydroxycarbostyrils prepared in the preceding examples were tested in the rat Passive Cutaneous Anaphylaxis Test (PCA test), described below. They were administered as their sodium salts either in pH 7.2 phosphate buffer (for soluble salts) or as a suspension in 1% methyl cellulose (for insoluble salts).
Male Wistar rats of 250-300g, were injected intraperitoneally with 0.5 ml. of Bordatella pertussis vaccine (containing 4 × 10^10 dead organism per ml) and subcutaneously with 0.5 ml. of an emulsion of 100 mg. of ovalbumin in 2 ml of saline and 3 ml. of incomplete Freunds' adjuvant. Rats were bled by cardiac puncture on day 18, the blood was pooled and separated and serum stored at -20° and thawed only once before use.
0.1 ml of each of six twofold serial dilutions of the serum in 0.9% saline were injected intradermally into separate sites on the shaved dorsal surface of 250-350 g. Male Wistar rats. 72 hours later the animals were challenged by i v injection of 0.3 ml. of 1% ovalbumin mixed with 0.1 ml of a 5% solution of pontamine sky blue dye both in isotonic saline buffered with pH. 7.2 Sorenson buffer (P P S ) The rats were killed after 20 minutes and the diameter of the blue wheals at the antibody injection sites were measured. The starting dilution of the serum was adjusted so that there was no response after challenge, at the site of injection of the highest dilution and a maximum response at the two or three lowest dilutions. Typically, six twofold serial dilutions of the serum 1/4 to […] were used.
Amounts of the compounds were administered to rats by subcutaneous injection, into the nucal region, of a solution of the compound in P.B.S. or as a suspension in 1% methyl cellulose, each amount to a test group of six animals at a specified time prior to intravenous challenge with ovalbumin.
% Inhibition of P.C.A = 100 (1 - a/b)
For those compounds having insoluble sodium salts, the salts were isolated by reaction of the free nitro compound with 2.5N sodium hydroxide and the filtered sodium salt washed free of alkali with water. The dried salts were then administered as a suspension in 1% methyl cellulose.

The mark [1] stands for this setting: 0 h, time 0 mins. prior to i.v. ovalbumin challenge.
Setting [2] is: 0.5 h, time 30 mins. prior to i.v. ovalbumin challenge.

The term inhibition denotes the relative decrease from the control value, in per cent. Consider `Cc1cc2c(O)c([N+](=O)[O-])c(=O)n(C)c2cc1C` [Example 38, 4-Hydroxy-3-nitro-1,6,7-trimethylcarbostyril], for which, under setting [1], the inhibition at 25 mg/kg amounted to 13% and the inhibition at 100 mg/kg worked out at 53%. Under setting [2], the inhibition at 25 mg/kg is 14% and the inhibition at 100 mg/kg was 47%.
